Assay results published in patent publication US10034854B2, “Pharmaceutical composition with improved bioavailability” (Hoffmann-La Roche Inc., priority 2013, dated 2018).
Converted amounts (≈) assume the structure as drawn. Like-named read-outs stand apart in the source and are kept apart here. One block for each molecule: values may come before it.

Columns and labels:
[1] = Solubility in bio-relevant fluids (FaSSIF, FeSSIF); format: physicochemical; settings: thermodynamic from solid, 37° C.
Procedure: Approximately 5 mg of Compound A as MBP was placed in 20 mL of 37° C. bio-relevant fluids (Fasted State Simulated Intestinal Fluid and Fed State Simulated Intestinal Fluid) and was filtered through a 0.2 μm filter over time. The filtrate was then analyzed by HPLC.

[2] = Salt screening: solubility of various salts of Compound A; settings: for solubility: salts of Compound A, at the pH of the same line
[3] = Animal pharmacokinetics study of formulations (FIG. 3); settings: oral formulations
[4] = Caco-2 assay (permeability); format: in vitro ADME; settings: human
Description: The permeability of the compound is not high as determined with the Caco-2 assay value of 0.8×10^−6 cm/s. The poor solubility and the targeted high doses/frequency of dosing for this series of compounds led to the categorization of Compound A as BCS class IV compound (poor solubility/poor permeability).

[5] = Pharmacokinetics / bioavailability in monkeys; settings: IV, 1.25 mg/kg, fed
[6] = Aqueous solubility of crystalline Compound A at physiological pHs; format: physicochemical
[7] = pH belonging to the solubility value of the salt

solubility ([1]; Fasted State Simulated Intestinal Fluid (FaSSIF), FaSSIF): 2 µg/mL (≈ 3.24 µM) | solubility ([1]; Fed State Simulated Intestinal Fluid (FeSSIF), FeSSIF): 3 µg/mL (≈ 4.87 µM)
Molecule: COc1cc(C(=O)O)ccc1NC(=O)[C@@H]1N[C@@H](CC(C)(C)C)[C@](C#N)(c2ccc(Cl)cc2F)[C@H]1c1cccc(Cl)c1F [Crystalline Form, 4-{[(2R,3S,4R,5S)-4-(4-Chloro-2-fluoro-phenyl)-3-(3-chloro-2-fluoro-phenyl)-4-cyano-5-(2,2-dimethyl-propyl)-pyrrolidine-2-carbonyl]-amino}-3-methoxy-benzoic acid]

Molecule: Sodium
pH [2, 7]: 7.2 | solubility [2]: 0.7 µg/mL

Molecule: Cc1ccc(S(=O)(=O)O)cc1 [p-Toluenesulfonic acid]
pH [2, 7]: 2.7 | solubility [2]: <0.02 µg/mL

pH [2, 7]: 8.0 | solubility [2]: 0.5 µg/mL
Molecule: [K+] [Potassium]

bioavailability (exposure) (in words) [3]: not improved | aqueous solubility (in words) ([2]; among the salts identified in salt screening): most improved aqueous solubility | pH [2, 7]: 7.8 | solubility [2]: >1400 µg/mL
Molecule: CNC[C@H](O)[C@@H](O)[C@H](O)[C@H](O)CO [Meglamine]

Papp [4]: 0.8 ×10⁻⁶ cm/s | % AUC Extrap [5]: 0.7% | AUC/Dose [5]: 10.3 µg·h/mL/mg/kg | solubility ([6]; aqueous medium, aqueous buffer, crystalline form, physiological pHs (pH 1.5-7.0)): < 0.05 µg/mL | solubility ([6]; pH 1.5, aqueous buffer, crystalline forms, in water at physiological pHs (pH1.5-8.0)): < 0.05 µg/mL
Molecule: COc1cc(C(=O)O)ccc1NC(=O)[C@@H]1N[C@@H](CC(C)(C)C)[C@](C#N)(c2ccc(Cl)cc2F)[C@H]1c1cccc(Cl)c1F [Compound A, 4-{[(2R,3S,4R,5S)-4-(4-Chloro-2-fluoro-phenyl)-3-(3-chloro-2-fluoro-phenyl)-4-cyano-5-(2,2-dimethyl-propyl)-pyrrolidine-2-carbonyl]-amino}-3-methoxy-benzoic acid]

Molecule: CS(=O)(=O)O [Methanesulfonic acid (Mesylate)]
pH [2]: 3.1
